From patent US9505783B2, “Method of producing pyrone and pyridone derivatives” (priority 2009, dated 2016)

How the values were obtained:
[1] = target: cap-dependent endonuclease (RNP fraction containing PB1•PB2•PA complex) (Influenza A virus, UniProt P15659); test: Measurement of cap-dependent endonuclease (CEN) inhibitory activity; assay type: biochemical; conditions: RNP enzyme from A/WSN/33 virus, capped Cy3/BHQ2-labelled 30mer RNA substrate, room temperature 60 minutes
influenza virus = test: CPE inhibitory effect confirming assay; assay type: cell-based; conditions: unidentified influenza virus, 72 h, read-out: CPE IC50

CN1C(=O)c2c(O)c(=O)c(C(=O)O)cn2C[C@H]1C(c1ccccc1)c1ccccc1 [Compound 43]
IC50 [1]: 78 nM | IC50 (influenza virus): 1410 nM

CCOC(=O)CCN1CN(C(c2ccccc2)c2ccccc2)n2ccc(=O)c(O)c2C1=O [Compound 128]
IC50 [1]: 63 nM | IC50 (influenza virus): 416 nM

O=C(O)c1cn2c(c(O)c1=O)C(=O)N1CCCO[C@H]1[C@@H]2C(c1ccccc1)c1ccccc1 [Compound 175]
IC50 [1]: 132 nM | IC50 (influenza virus): 102 nM
